Where a name gives a salt, the structure may show the parent alone.

The target in one assay is T1, human hNET (Homo sapiens, UniProt P23975).
T1 construct: expressed in transfected cells; host or cells: MDCK-Net6 (MDCK cells, stably transfected)
T1 sequence (P23975 whole entry): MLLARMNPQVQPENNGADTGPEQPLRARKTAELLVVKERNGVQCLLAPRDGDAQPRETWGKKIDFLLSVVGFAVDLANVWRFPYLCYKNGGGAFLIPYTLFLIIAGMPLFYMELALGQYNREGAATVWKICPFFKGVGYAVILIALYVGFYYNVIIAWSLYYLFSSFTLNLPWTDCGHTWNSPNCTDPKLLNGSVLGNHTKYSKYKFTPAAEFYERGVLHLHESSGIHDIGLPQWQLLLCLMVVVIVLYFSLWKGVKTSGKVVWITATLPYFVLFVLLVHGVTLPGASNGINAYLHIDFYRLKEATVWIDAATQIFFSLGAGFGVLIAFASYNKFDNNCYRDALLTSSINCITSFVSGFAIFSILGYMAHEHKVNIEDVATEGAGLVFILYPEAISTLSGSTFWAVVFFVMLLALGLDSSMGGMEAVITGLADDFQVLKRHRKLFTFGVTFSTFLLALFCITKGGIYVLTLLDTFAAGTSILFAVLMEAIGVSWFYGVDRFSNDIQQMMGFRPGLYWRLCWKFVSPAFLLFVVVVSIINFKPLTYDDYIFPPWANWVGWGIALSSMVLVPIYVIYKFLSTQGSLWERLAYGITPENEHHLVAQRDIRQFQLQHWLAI
Briefly: Norepinephrine (NE) uptake assay in MDCK-Net6 cells. Type of assay: cell-based. Particulars: 1 μM test compound, [3H]NE uptake. Here is the method: Cells were plated at 300,000/T75 flask and cells were split twice weekly. […] Cells were plated at 250,000 cells/T75 flask and split twice weekly.
Norepinephrine (NE) Uptake Assay
On day 1, cells were plated at 3,000 cells/well in growth medium and maintained in a cell incubator (37° C., 5% CO2). On day 2, growth medium was replaced with 200 μl of assay buffer (25 mM HEPES; 120 mM NaCl; 5 mM KCl; 2.5 mM CaCl2; 1.2 mM MgSO4; 2 mg/ml glucose (pH 7.4, 37° C.)) containing 0.2 mg/ml ascorbic acid and 10 μM pargyline. Plates containing cells with 200 μl of assay buffer were equilibrated for 10 minutes at 37° C. prior to addition of compounds. A stock solution of desipramine was prepared in DMSO (10 mM) and delivered to triplicate wells containing cells for a final test concentration of 1 μM. Data from these wells were used to define non-specific NE uptake (minimum NE uptake). Test compounds were prepared in DMSO (10 mM) and diluted in assay buffer according to test range (1 to 10,000 nM). Twenty-five microliters of assay buffer (maximum NE uptake) or test compound were added directly to triplicate wells containing cells in 200 μl of assay buffer. The cells in assay buffer with test compounds were incubated for 20 minutes at 37° C. […] The reaction was terminated by decanting the supernatant from the plate. The plates containing cells were washed twice with 200 μl assay buffer (37° C.) to remove free radioligand. The plates were then inverted, left to dry for 2 minutes, then reinverted and air-dried for an additional 10 minutes. The cells were lysed in 25 μl of 0.25 N NaOH solution (4° C.), placed on a shake table and vigorously shaken for 5 minutes. After cell lysis, 75 μl of scintillation cocktail was added to each well and the plates were sealed with film tape. The plates were returned to the shake table and vigorously shaken for a minimum of 10 minutes to ensure adequate partitioning of organic and aqueous solutions. The plates were counted in a Wallac Microbeta counter (PerkinElmer) to collect the raw cpm data.
For each experiment, a data stream of cpm values collected from the Wallac Microbeta counter was downloaded to a Microsoft Excel statistical application program. Calculations of EC50 values were made using the transformed-both-sides logistic dose response program written by Wyeth Biometrics Department.
“1-[1-[4-methoxy-3-(trifluoromethoxy)phenyl]-2-(4-methylpiperazin-1-yl)ethyl]cyclohexanoldihydrochloride [Example 403]”: the “% Inhibition @ 1 μM (hNET)” value is recorded as 48%.

The assay is the same for the next values; noted with them: 1 μM test compound, [3H]NE uptake, dihydrochloride, 1 µM.
On to `OC1(C(CN2CCNCC2)c2cccc(OC(F)(F)F)c2)CCCCC1` (stereo in doubt) [Example 244, 1-{(1R)-2-piperazin-1-yl-1-[3-(trifluoromethoxy)phenyl]ethyl}cyclohexanol dihydrochloride], for which the “% Inhibition @ 1 μM (hNET)” value is listed as 15.6%.

The assay is the same for the next values; noted with them: 1 μM test compound, [3H]NE uptake, read-out: % Inhibition @ 1 μM (hNET).
As usually defined, the inhibition is the drop in the measured response relative to a control, in per cent. Consider `OC1([C@H](CN2CCNCC2)c2cccc(Oc3ccccc3)c2)CCCCC1` (single isomer, unassigned) [Example 357, dihydrochloride], for which the inhibition at 1 µM is 87%.
On the same count and under the same terms, to `OC1([C@@H](CN2CCNCC2)c2cccc(Oc3ccccc3)c2)CCCCC1` (single isomer, unassigned) [Example 358, dihydrochloride] belongs 73%; to `CC(C)(O)CN1CCN(CC(c2cccc(OC(F)(F)F)c2)C2(O)CCCCC2)CC1` (single isomer, unassigned) [Example 372, 1-{2-[4-(2-hydroxy-2-methylpropyl)piperazin-1-yl]-1-[3-(trifluoromethoxy)phenyl]ethyl}cyclohexanol dihydrochloride], 37%.
Same read-out and setting: then `OC1(C(CN2CCNCC2)c2ccc(OCc3ccccc3)cc2)CCCCC1` (stereo not drawn) [Example 27, 1-{1-[4-(benzyloxy)phenyl]-2-piperazin-1-ylethyl}cyclohexanol dihydrochloride], with 82%; and `OC1(C(CN2CCNCC2)c2ccc(OC(F)(F)F)cc2)CCCCC1` (stereo not drawn) [Example 28, 1-{2-piperazin-1-yl-1-[4-(trifluoromethoxy)phenyl]ethyl}cyclohexanol dihydrochloride], with 80%.
Still for that read-out and setting: to `OC1(C(CN2CCNCC2)c2cccc(OC(F)(F)F)c2)CCC1` (stereo not drawn) [Example 46, 1-{2-piperazin-1-yl-1-[3-(trifluoromethoxy)phenyl]ethyl}cyclobutanol dihydrochloride] belongs 44%; to `OC1(C(CN2CCNCC2)c2ccc(OCc3ccccc3)cc2)CCC1` (stereo not drawn) [Example 70, 1-{1-[4-(benzyloxy)phenyl]-2-piperazin-1-ylethyl}cyclobutanol dihydrochloride], 8%; to `CN1CCN(CC(c2ccc(OCc3ccccc3)cc2)C2(O)CCC2)CC1` (stereo not drawn) [Example 71, 1-[1-[4-(benzyloxy)phenyl]-2-(4-methylpiperazin-1-yl)ethyl]cyclobutanol dihydrochloride], 25%.
Take `CN1CCN(CC(c2cccc(OC(F)(F)F)c2)C2(O)CCC2)CC1` (stereo not drawn) [Example 92, 1-{2-(4-methylpiperazin-1-yl)-1-[3-(trifluoromethoxy)phenyl]ethyl}cyclobutanol dihydrochloride]: the inhibition at 1 µM is 13%.
The same measure, in the same setting: then `OC1(C(CN2CCNCC2)c2cccc(OCc3ccccc3)c2)CCCCC1` (stereo not drawn) [Example 104, 1-{1-[3-(benzyloxy)phenyl]-2-piperazin-1-ylethyl}cyclohexanol dihydrochloride], with 3%; and `CN1CCN(CC(c2cccc(OCc3ccccc3)c2)C2(O)CCCCC2)CC1` (stereo not drawn) [Example 108, 1-[1-[3-(benzyloxy)phenyl]-2-(4-methylpiperazin-1-yl)ethyl]cyclohexanol dihydrochloride], with 0%; and `OC1(C(CN2CCNCC2)c2cccc(OCc3ccccc3)c2)CCC1` (stereo not drawn) [Example 111, 1-{1-[3-(benzyloxy)phenyl]-2-piperazin-1-ylethyl}cyclobutanol dihydrochloride], with -3%.
On the same count and under the same terms, then `CN1CCN(CC(c2cccc(OCc3ccccc3)c2)C2(O)CCC2)CC1` (stereo not drawn) [Example 115, 1-[1-[3-(benzyloxy)phenyl]-2-(4-methylpiperazin-1-yl)ethyl]cyclobutanol dihydrochloride], with -10%.
Same read-out and setting: then `OC1(C(CN2CCNCC2)c2cccc(-c3ccc(Cl)c(Cl)c3)c2)CCCCC1` (stereo not drawn) [Example 135, 1-[1-(3′,4′-dichloro-1,1′-biphenyl-3-yl)-2-piperazin-1-ylethyl]cyclohexanol dihydrochloride], with 65%; and `OC1(C(CN2CCNCC2)c2cccc(-c3ccccc3)c2)CCCCC1` (stereo not drawn) [Example 136, 1-[1-(1,1′-biphenyl-3-yl)-2-piperazin-1-ylethyl]cyclohexanol dihydrochloride], with 62%.
Regarding `OC1(C(CN2CCNCC2)c2cccc(-c3ccc(Cl)cc3)c2)CCCCC1` (stereo not drawn) [Example 137, 1-[1-(4′-chloro-1,1′-biphenyl-3-yl)-2-piperazin-1-ylethyl]cyclohexanol dihydrochloride], the inhibition at 1 µM was 41%.
Same read-out and setting: then `COc1cccc(-c2cccc(C(CN3CCNCC3)C3(O)CCCCC3)c2)c1` (stereo not drawn) [Example 138, 1-[1-(3′-methoxy-1,1′-biphenyl-3-yl)-2-piperazin-1-ylethyl]cyclohexanol dihydrochloride], with 44%.
The same measure, in the same setting: to `OC1(C(CN2CCNCC2)c2cccc(-c3cccc(Cl)c3)c2)CCCCC1` (stereo not drawn) [Example 139, 1-[1-(3′-chloro-1,1′-biphenyl-3-yl)-2-piperazin-1-ylethyl]cyclohexanol dihydrochloride] belongs 45%; to `OC1(C(CN2CCNCC2)c2cccc(-c3ccc(F)c(F)c3)c2)CCCCC1` (stereo not drawn) [Example 147, 1-[1-(3′,4′-difluoro-1,1′-biphenyl-3-yl)-2-piperazin-1-ylethyl]cyclohexanol dihydrochloride], 13%; to `OC1(C(CN2CCNCC2)c2ccccc2-c2ccc(Cl)c(Cl)c2)CCCCC1` (stereo not drawn) [Example 148, 1-[1-(3′,4′-dichloro-1,1′-biphenyl-2-yl)-2-piperazin-1-ylethyl]cyclohexanol dihydrochloride], 32%.
Still for that read-out and setting: to `OC1(C(CN2CCNCC2)c2ccccc2-c2ccccc2)CCCCC1` (stereo not drawn) [Example 149, 1-[1-(1,1′-biphenyl-2-yl)-2-piperazin-1-ylethyl]cyclohexanol dihydrochloride] belongs 31%.
`OC1(C(CN2CCNCC2)c2ccccc2-c2cccc(Cl)c2)CCCCC1` (stereo not drawn) [Example 150, 1-[1-(3′-chloro-1,1′-biphenyl-2-yl)-2-piperazin-1-ylethyl]cyclohexanol dihydrochloride]: the inhibition at 1 µM worked out at 18%.
For `OC1(C(CN2CCNCC2)c2ccccc2-c2ccc3c(c2)OCO3)CCCCC1` (stereo not drawn) [Example 151, 1-{1-[2-(1,3-benzodioxol-5-yl)phenyl]-2-piperazin-1-ylethyl}cyclohexanol dihydrochloride], the inhibition at 1 µM came out at 12%.
The same measure, in the same setting: then `NC1CCN(CC(c2cccc(-c3ccc(Cl)c(Cl)c3)c2)C2(O)CCCCC2)CC1` (stereo not drawn) [Example 152, 1-[2-(4-aminopiperidin-1-yl)-1-(3′,4′-dichloro-1,1′-biphenyl-3-yl)ethyl]cyclohexanol dihydrochloride], with 1%.
The same measure, in the same setting: then `OC1(C(CN2CCNCC2)c2cccc(-c3ccc(Cl)c(Cl)c3)c2)CCC1` (stereo not drawn) [Example 153, 1-[1-(3′,4′-dichloro-1,1′-biphenyl-3-yl)-2-piperazin-1-ylethyl]cyclobutanol dihydrochloride], with 2%.
Same read-out and setting: to `OC1(C(CN2CCNCC2)c2ccc(-c3ccccc3)cc2)CCCCC1` (stereo not drawn) [Example 157, 1-[1-(1,1′-biphenyl-4-yl)-2-piperazin-1-ylethyl]cyclohexanol dihydrochloride] belongs 54%.

Still in this assay, the particulars now being: MDCK-Net6, read-out: % Inhibition @ 1 μM (hNET), 1 μM test compound, [3H]NE uptake.
Turning to `OC1(C(CN2CCNCC2)c2cccc(OC(F)(F)F)c2)CCCCC1` (stereo not drawn) [Example 23, 1-{2-piperazin-1-yl-1-[3-(trifluoromethoxy)phenyl]ethyl}cyclohexanol dihydrochloride], the inhibition at 1 µM is 85%.
The same measure, in the same setting: then `CN1CCN(CC(c2cccc(OC(F)(F)F)c2)C2(O)CCCCC2)CC1` (stereo not drawn) [Example 24, 1-{2-(4-methylpiperazin-1-yl)-1-[3-(trifluoromethoxy)phenyl]ethyl}cyclohexanol dihydrochloride], with 85%; and `OC1(C(CN2CCNCC2)c2cccc(-c3ccccc3F)c2)CCCCC1` (stereo not drawn) [Example 140, 1-[1-(2′-fluoro-1,1′-biphenyl-3-yl)-2-piperazin-1-ylethyl]cyclohexanol maleate], with 52%.

Still in this assay, the particulars now being: [3H]NE uptake, test range 1 to 10,000 nM.
One may read the EC50 as the concentration needed to bring the measured effect to its halfway point. The low end stands for a more potent agent, the high end for a less potent agent. Regarding `OC1(C(CN2CCNCC2)c2cccc(OC(F)(F)F)c2)CCCCC1` (stereo not drawn) [Example 23, 1-{2-piperazin-1-yl-1-[3-(trifluoromethoxy)phenyl]ethyl}cyclohexanol dihydrochloride], the half-maximal effective concentration (EC50) stood at 350 nM.
The same measure, in the same setting: to `OC1(C(CN2CCNCC2)c2ccc(OCc3ccccc3)cc2)CCCCC1` (stereo not drawn) [Example 27, 1-{1-[4-(benzyloxy)phenyl]-2-piperazin-1-ylethyl}cyclohexanol dihydrochloride] belongs 470 nM; to `OC1(C(CN2CCNCC2)c2cccc(-c3ccc(Cl)c(Cl)c3)c2)CCCCC1` (stereo not drawn) [Example 135, 1-[1-(3′,4′-dichloro-1,1′-biphenyl-3-yl)-2-piperazin-1-ylethyl]cyclohexanol dihydrochloride], 635 nM.
On the same count and under the same terms, to `OC1(C(CN2CCNCC2)c2cccc(-c3ccccc3)c2)CCCCC1` (stereo not drawn) [Example 136, 1-[1-(1,1′-biphenyl-3-yl)-2-piperazin-1-ylethyl]cyclohexanol dihydrochloride] belongs 1000 nM; to `OC1(C(CN2CCNCC2)c2cccc(-c3ccccc3F)c2)CCCCC1` (stereo not drawn) [Example 140, 1-[1-(2′-fluoro-1,1′-biphenyl-3-yl)-2-piperazin-1-ylethyl]cyclohexanol maleate], 870 nM.
